The target in one test is T1, SHP2 (Homo sapiens, UniProt Q06124).
T1 sequence (Q06124 1-593): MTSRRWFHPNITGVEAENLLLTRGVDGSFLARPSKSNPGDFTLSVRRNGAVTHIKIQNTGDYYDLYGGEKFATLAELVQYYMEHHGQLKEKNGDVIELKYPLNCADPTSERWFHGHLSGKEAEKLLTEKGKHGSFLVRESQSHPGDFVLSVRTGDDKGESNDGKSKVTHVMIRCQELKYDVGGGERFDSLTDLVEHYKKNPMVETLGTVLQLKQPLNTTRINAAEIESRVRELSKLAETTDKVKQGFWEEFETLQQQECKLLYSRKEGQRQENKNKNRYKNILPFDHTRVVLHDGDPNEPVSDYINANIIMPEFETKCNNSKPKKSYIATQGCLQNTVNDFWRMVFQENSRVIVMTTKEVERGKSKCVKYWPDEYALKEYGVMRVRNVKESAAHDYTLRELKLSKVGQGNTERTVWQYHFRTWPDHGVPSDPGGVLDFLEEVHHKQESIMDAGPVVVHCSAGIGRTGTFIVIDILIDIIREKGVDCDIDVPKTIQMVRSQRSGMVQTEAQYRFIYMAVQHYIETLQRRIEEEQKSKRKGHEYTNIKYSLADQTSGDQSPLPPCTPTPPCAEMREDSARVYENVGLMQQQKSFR
Briefly: SHP2 allosteric inhibitor enzyme activity assay (DiFMUP fluorescence). The format is biochemical. Particulars: class symbols. Summed up: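 SHP2 activated by 0.5 μM IRS1_pY1172(dPEG8)pY1222 peptide, 0.2 ng enzyme per well, 1 h at room temperature with compound (1 μM top, 3-fold series), then DiFMUP substrate 1 h. Buffer: 60 mM HEPES, 75 mM NaCl, 75 mM KCl, 0.05% BRIJ-35, 1 mM EDTA, 5 mM DTT. Fluorescence ex 340/em 450 nm; IC50 by variable-slope fit.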
By IC50 is commonly meant the concentration that inhibits the measured activity by half. Turning to `CC1(C)C=C(c2n[nH]c3nc(N4CCC5(CC4)Cc4ccccc4[C@H]5N)[nH]c(=O)c23)c2sc(N)nc2C1` [Example 159, (S)-6-(1-amino-1,3-dihydrospiro[indene-2,4′-piperidin]-1′-yl)-3-(2-amino-5,5-dimethyl-4,5-dihydrobenzo[d]thiazol-7-yl)-1,5-dihydro-4H-pyrazolo[3,4-d]pyrimidin-4-one], the half-inhibitory concentration (IC50) lay in the range of 20 to 60 nM. On to `C[C@@H]1OCC2(CCN(c3nc4[nH]nc(C5(c6ccccc6C(F)(F)F)CC5)c4c(=O)[nH]3)CC2)[C@@H]1N` [Example 298, 6-((3S,4S)-4-amino-3-methyl-2-oxa-8-azaspiro[4.5]decan-8-yl)-3-(1-(2-(trifluoromethyl)phenyl)cyclopropyl)-1,5-dihydro-4H-pyrazolo[3,4-d]pyrimidin-4-one], for which the IC50 was above 60 nM. Compound `Cc1cccc(C2(c3n[nH]c4nc(N5CCC6(CC5)CO[C@@H](C)[C@H]6N)[nH]c(=O)c34)CC2)n1` [Example 319, 6-((3S,4S)-4-amino-3-methyl-2-oxa-8-azaspiro[4.5]decan-8-yl)-3-(1-(6-methylpyridin-2-yl)cyclopropyl)-1,5-dihydro-4H-pyrazolo[3,4-d]pyrimidin-4-one] gave a concentration for half-maximal inhibition (IC50) above 60 nM. Compound `N#Cc1cc(C2(c3n[nH]c4nc(N5CCC6(CC5)Cc5ccccc5[C@H]6N)[nH]c(=O)c34)CC2)ccn1` [Example 26, (S)-4-(1-(6-(1-amino-1,3-dihydrospiro[indene-2,4′-piperidin]-1′-yl)-4-oxo-4,5-dihydro-1H-pyrazolo[3,4-d]pyrimidin-3-yl)cyclopropyl)picolinonitrile] yielded an IC50 of at most 20 nM. `N[C@@H]1c2ccccc2CC12CCN(c1nc3[nH]nc(C4(c5cccnc5)CC4)c3c(=O)[nH]1)CC2` [Example 247, (S)-6-(1-amino-1,3-dihydrospiro[indene-2,4′-piperidin]-1′-yl)-3-(1-(pyridin-3-yl)cyclopropyl)-1,5-dihydro-4H-pyrazolo[3,4-d]pyrimidin-4-one] came in with an IC50 of at most 20 nM. `N[C@@H]1c2ccccc2CC12CCN(c1nc3[nH]nc(C4(c5ccccc5)CCC4)c3c3nncn13)CC2` [Example 92, (S)-1′-(9-(1-phenylcyclobutyl)-7H-pyrazolo[4,3-e][1,2,4]triazolo[4,3-c]pyrimidin-5-yl)-1,3-dihydrospiro[indene-2,4′-piperidin]-1-amine] registered an IC50 of at most 20 nM.

`N[C@@H]1c2ccccc2CC12CCN(c1nc3[nH]nc(C4=CCOc5ccccc54)c3c(=O)[nH]1)CC2` [Example 173, (S)-6-(1-amino-1,3-dihydrospiro[indene-2,4′-piperidin]-1′-yl)-3-(2H-chromen-4-yl)-1,5-dihydro-4H-pyrazolo[3,4-d]pyrimidin-4-one] showed an IC50 of at most 20 nM. `C[C@@H]1CCC2(CCN(c3nc4[nH]nc(C5(c6ccccc6)CC5)c4c(=O)[nH]3)CC2)[C@@H]1N` [Example 320, 6-((1R,2R)-1-amino-2-methyl-8-azaspiro[4.5]decan-8-yl)-3-(1-phenylcyclopropyl)-1,5-dihydro-4H-pyrazolo[3,4-d]pyrimidin-4-one] came in with an IC50 of 20 to 60 nM. Still for that read-out and setting: in the case of `NC1c2ccccc2CC12CCN(c1nc3[nH]nc(C4=CCCn5ccnc54)c3c(=O)[nH]1)CC2` (centres unmarked) [Example 128] it was at most 20 nM; in that of `CSc1ccc2c(c1)[C@@H](N)C1(CCN(c3nc4[nH]nc(C5(c6ccccc6)CC5)c4c(=O)[nH]3)CC1)C2` [Example 196, (S)-6-(1-amino-6-(methylthio)-1,3-dihydrospiro[indene-2,4′-piperidin]-1′-yl)-3-(1-phenylcyclopropyl)-1,5-dihydro-4H-pyrazolo[3,4-d]pyrimidin-4-one], at most 20 nM. The compound `Cc1ccc(C2(c3n[nH]c4nc(N5CCC6(CC5)CO[C@@H](C)[C@H]6N)[nH]c(=O)c34)CC2)cc1` [Example 300, 6-((3S,4S)-4-amino-3-methyl-2-oxa-8-azaspiro[4.5]decan-8-yl)-3-(1-(p-tolyl)cyclopropyl)-1,5-dihydro-4H-pyrazolo[3,4-d]pyrimidin-4-one] displayed an IC50 of 20 to 60 nM. Consider `N#Cc1nnc(C2(c3n[nH]c4nc(N5CCC6(CC5)Cc5ccccc5[C@H]6N)[nH]c(=O)c34)CC2)s1` [Example 238, (S)-5-(1-(6-(1-amino-1,3-dihydrospiro[indene-2,4′-piperidin]-1′-yl)-4-oxo-4,5-dihydro-1H-pyrazolo[3,4-d]pyrimidin-3-yl)cyclopropyl)-1,3,4-thiadiazole-2-carbonitrile], for which the concentration for half-maximal inhibition (IC50) is at most 20 nM. On the same count and under the same terms, in the case of `N[C@@H]1c2ccccc2CC12CCN(c1nc3[nH]nc(C4(c5cnn(Cc6ccccc6)c5)CC4)c3c(=O)[nH]1)CC2` [Example 57, (S)-6-(1-amino-1,3-dihydrospiro[indene-2,4′-piperidin]-1′-yl)-3-(1-(1-benzyl-1H-pyrazol-4-yl)cyclopropyl)-1,5-dihydro-4H-pyrazolo[3,4-d]pyrimidin-4-one] it was at most 20 nM; in that of `N[C@@H]1c2ccccc2CC12CCN(c1nc3[nH]nc(C4(c5ccnc(CN6CCCC6)c5)CC4)c3c(=O)[nH]1)CC2` [Example 55, (S)-6-(1-amino-1,3-dihydrospiro[indene-2,4′-piperidin]-1′-yl)-3-(1-(2-(pyrrolidin-1-ylmethyl)pyridin-4-yl)cyclopropyl)-1,5-dihydro-4H-pyrazolo[3,4-d]pyrimidin-4-one], 20 to 60 nM; in that of `CCOC(=O)Nc1cccc(C2(c3n[nH]c4nc(N5CCC6(CC5)Cc5ccccc5[C@H]6N)[nH]c(=O)c34)CC2)c1` [Example 41, ethyl (S)-(3-(1-(6-(1-amino-1,3-dihydrospiro[indene-2,4′-piperidin]-1′-yl)-4-oxo-4,5-dihydro-1H-pyrazolo[3,4-d]pyrimidin-3-yl)cyclopropyl)phenyl)carbamate], at most 20 nM.

The compound `N[C@@H]1c2ccccc2CC12CCN(c1nc3[nH]nc(C4=CCC5(CC5)c5ccccc54)c3c(=O)[nH]1)CC2` [Example 132, (S)-6-(1-amino-1,3-dihydrospiro[indene-2,4′-piperidin]-1′-yl)-3-(2′H-spiro[cyclopropane-1,1′-naphthalen]-4′-yl)-1,5-dihydro-4H-pyrazolo[3,4-d]pyrimidin-4-one] had an IC50 of at most 20 nM. `C[C@@H]1OCC2(CCN(c3ncc(C4(c5ccccc5)CC4)c(=O)n3C)CC2)[C@@H]1N` [Example 263, 2-((3S,4S)-4-amino-3-methyl-2-oxa-8-azaspiro[4.5]decan-8-yl)-3-methyl-5-(1-phenylcyclopropyl)pyrimidin-4(3H)-one]: the IC50 is above 60 nM. As for `CC1(C)CC1(c1ccccc1)c1n[nH]c2nc(N3CCC4(CC3)Cc3ccccc3[C@H]4N)[nH]c(=O)c12` (stereo partly drawn) [Example 5, 6-((S)-1-amino-1,3-dihydrospiro[indene-2,4′-piperidin]-1′-yl)-3-(2,2-dimethyl-1-phenylcyclopropyl)-1,5-dihydro-4H-pyrazolo[3,4-d]pyrimidin-4-one], the IC50 was above 60 nM. On to `CC1(C)CC=C(c2n[nH]c3nc(N4CCC5(CC4)Cc4ccccc4[C@H]5N)[nH]c(=O)c23)c2ccc(C(F)(F)F)nc21` [Example 145, (S)-6-(1-amino-1,3-dihydrospiro[indene-2,4′-piperidin]-1′-yl)-3-(8,8-dimethyl-2-(trifluoromethyl)-7,8-dihydroquinolin-5-yl)-1,5-dihydro-4H-pyrazolo[3,4-d]pyrimidin-4-one], for which the IC50 was at most 20 nM. For the compound `C[C@@H]1OCC2(CCN(c3nc4[nH]nc(C5(c6cccc(C#N)c6)CC5)c4c(=O)[nH]3)CC2)[C@@H]1N` [Example 290, 3-(1-(6-((3S,4S)-4-amino-3-methyl-2-oxa-8-azaspiro[4.5]decan-8-yl)-4-oxo-4,5-dihydro-1H-pyrazolo[3,4-d]pyrimidin-3-yl)cyclopropyl)benzonitrile], the IC50 fell in the range of 20 to 60 nM. Compound `N[C@@H]1c2ccccc2CC12CCN(c1nc3[nH]nc(C4(c5ccc6ncccc6c5)CC4)c3c(=O)[nH]1)CC2` [Example 14, (S)-6-(1-amino-1,3-dihydrospiro[indene-2,4′-piperidin]-1′-yl)-3-(1-(quinolin-6-yl)cyclopropyl)-1,5-dihydro-4H-pyrazolo[3,4-d]pyrimidin-4-one] gave an IC50 of at most 20 nM. Regarding `CC1(C)C=C(c2n[nH]c3nc(N4CCC5(CC4)Cc4ccccc4[C@H]5N)[nH]c(=O)c23)c2cnn(CC(F)(F)F)c2C1` [Example 151, (S)-6-(1-amino-1,3-dihydrospiro[indene-2,4′-piperidin]-1′-yl)-3-(6,6-dimethyl-l-(2,2,2-trifluoroethyl)-6,7-dihydro-1H-indazol-4-yl)-1,5-dihydro-4H-pyrazolo[3,4-d]pyrimidin-4-one], the IC50 was at most 20 nM.

Still in this test, the particulars now being: numeric values.
Consider `N[C@@H]1c2ccccc2CC12CCN(c1nc3[nH]nc(C4CCCc5ncccc54)c3c(=O)[nH]1)CC2` (stereo partly drawn) [Example 108, 6-((S)-1-amino-1,3-dihydrospiro[indene-2,4′-piperidin]-1′-yl)-3-(5,6,7,8-tetrahydroquinolin-5-yl)-1,5-dihydro-4H-pyrazolo[3,4-d]pyrimidin-4-one], for which 1.9 nM corresponded to half-maximal inhibition (IC50).

Source of the values: patent US20230192705A1, “SHP2 INHIBITORS, COMPOSITIONS AND USES THEREOF” (Betta Pharmaceuticals Co., Ltd, priority 2020, published 2023).
